The source of these data is ChEMBL document CHEMBL2034892, “The relevance of higher plants in lead compound discovery programs” (J Nat Prod, 2011).

Converted amounts (≈) assume the structure as drawn.

For series [1], the target named is T1, Taste receptor type 2 member 31 (Homo sapiens, UniProt P59538).
T1 sequence (P59538 whole entry): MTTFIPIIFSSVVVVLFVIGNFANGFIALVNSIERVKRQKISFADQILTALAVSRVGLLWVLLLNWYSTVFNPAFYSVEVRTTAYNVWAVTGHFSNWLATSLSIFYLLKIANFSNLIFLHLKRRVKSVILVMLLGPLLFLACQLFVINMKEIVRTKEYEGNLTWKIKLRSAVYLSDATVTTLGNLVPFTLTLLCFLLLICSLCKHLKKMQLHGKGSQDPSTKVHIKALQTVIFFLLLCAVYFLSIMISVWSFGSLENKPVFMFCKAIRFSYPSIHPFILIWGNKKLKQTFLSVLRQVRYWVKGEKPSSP
Put plainly: Inhibition of human TAS2R31 receptor expressed in HEK293T cells overexpressing chimeric G-protein alpha-subunit. The series is classed as cell-based, HEK-293T.

Series [2] relates to KB. Put plainly: Cytotoxicity against human KB cells. The series is classed as functional, cell-based.
Series [3] deals with HT-29. Put plainly: Cytotoxicity against human HT-29 cells. The conditions noted are these: read-out: ED50 (the source's name). The series is classed as functional.
Series [4] can be described thus: Systemic availability in ip dosed C57BL/6 mouse. The series is classed as ADME, organism-based. To be noted: in vivo.
For series [5], the system named is P388. Put plainly: Antitumor activity against mouse P388 cells xenografted in mouse assessed as increase in life span at 2.5 mg/kg, ip dosed daily for 5 days. To be noted: route intraperitoneal. The series is classed as functional.
For series [6], the system named is P388. The experiment in a line: Antitumor activity against mouse P388 cells xenografted in mouse assessed as increase in life span at 2 mg/kg, iv dosed twice daily for 5 days.
Series [7] is described as follows: Oral bioavailability in C57BL/6 mouse. The conditions noted are these: in vivo. The series is classed as ADME, organism-based.
Series [8] is described as follows: Inhibition of proteasome. The series is classed as subcellular.

One may read the IC50 as the concentration at which inhibition is half-maximal. High values mean a need for much substance, low ones inhibition by little substance. Molecule `COc1cc2c(c(O)c1OC)C(=O)C[C@@H](c1ccc(O)cc1)O2` registered an IC50 in series [1] of 2.5 µM.
Same read-out and setting: the figure for `COc1cc(-c2cc(=O)c3c(O)c(OC)c(O)cc3o2)ccc1O` [JACEOSIDINE] is 11.3 µM.
Take `Oc1ccc([C@H]2c3c(O)cc4c(c3[C@@H]3c5c(O)cc6c(c5[C@H]2[C@@H]3c2ccc(O)cc2)[C@H](c2cc(O)cc(O)c2)[C@@H](c2ccc(O)cc2)O6)[C@@H](c2cc(O)cc(O)c2)[C@H](c2ccc(O)cc2)O4)cc1` [VATDIOSPYROIDOL]: in series [2], the EC50 was found to be 1 µg/mL (≈ 1.1 µM).
Turning to `CC(C)=CCc1c2c(c(O)c3c1O[C@]14C(=C[C@@H]5C[C@H]1C(C)(C)O[C@@]4(C/C=C(/C)C(=O)O)C5=O)C3=O)C=CC(C)(C)O2`, the EC50 in series [3] amounted to 0.36 µM.
`COc1cc(O)c2c(c1)O[C@H](c1ccc(O)cc1)CC2=O` [SAKURANETIN] came in with an IC50 in series [1] of 3.6 µM.
Broadly, the bioavailability is the share of a dose that reaches the circulation, judged against a reference dose that is usually intravenous. The low end stands for poor availability, the high end for good availability. As usually defined, the T/C is the ratio of treated to control. `COC(=O)[C@H]1[C@@H](O)[C@@]2(O)c3c(OC)cc(O[C@@H]4O[C@@H]([C@H](O)CO)CO[C@H]4OC)cc3O[C@@]2(c2ccc(OC)cc2)[C@@H]1c1ccccc1` [SILVESTROL]: the bioavailability in series [4] worked out at 100%; in series [7] it was 1.7%. Moreover, the T/C in series [5] was 150%; in series [6] it was 129%.
In turn, `O=C1c2c(O)cc(O)cc2O[C@H](c2ccc(O)cc2)[C@H]1c1c(O)cc(O)c2c(=O)cc(-c3ccc(O)c(O)c3)oc12` [MORELLOFLAVONE] came in with an IC50 in series [8] of 1.3 µM.
Molecule `COc1cc([C@@H]2CC(=O)c3c(O)cc(O)cc3O2)ccc1OC(=O)C(C)C` gave an IC50 in series [1] of 2 µM.
